Drawing on US20230219986A1, “NOVEL AMINOPYRIMIDINE EGFR INHIBITOR” (QILU PHARMACEUTICAL CO., LTD., priority 2020, published 2023), this text covers IC50 and GI50 for 20 molecules.

Read-outs that look alike come from different tables or passages of the source.

One assay deals with T1, wild-type EGFR (Homo sapiens, UniProt P00533).
T1 construct: purchased Signalchem
The assay can be described thus: Enzymology experiment in vitro (HTRF/FRET kinase activity), wild-type EGFR. In kind it is biochemical. The conditions noted are these: HTRF KinEASE-TK, read-out: EGFR (WT) IC50. As to the method:
(§1) 1. Experimental Materials
(§2) HTRF KinEASE-TK kit detection reagent, purchased from Cisbio
(§3) 1) 10 nL of gradient diluted compound was transferred into a 384-well experimental plate using Echo 550 (Labcyte).
(§4) 2) 5 μL of 2×EGFR enzyme solution was added to the 384-well experimental plate and incubated at room temperature for 10 minutes.
(§5) 3) 5 μL of 2× substrate solution containing polypeptide and ATP was added to the 384-well experimental plate and incubated at room temperature for 40 minutes.
(§6) 4) 10 μL of detection solution containing EDTA, XL665-labeled streptavidin and Eu^3+-labeled antibody was added thereto and incubated at room temperature for 1 hour.
In general terms: Time-resolved FRET reads energy transfer from a long-lived donor to a nearby acceptor.

For assay [1], the target named is T2, L858R/T790M/C797S triple mutant EGFR (Homo sapiens, UniProt P00533, C797S/L858R/T790M).
T2 construct: purchased Signalchem
T2 sequence (P00533 25-1210 T790M/C797S/L858R): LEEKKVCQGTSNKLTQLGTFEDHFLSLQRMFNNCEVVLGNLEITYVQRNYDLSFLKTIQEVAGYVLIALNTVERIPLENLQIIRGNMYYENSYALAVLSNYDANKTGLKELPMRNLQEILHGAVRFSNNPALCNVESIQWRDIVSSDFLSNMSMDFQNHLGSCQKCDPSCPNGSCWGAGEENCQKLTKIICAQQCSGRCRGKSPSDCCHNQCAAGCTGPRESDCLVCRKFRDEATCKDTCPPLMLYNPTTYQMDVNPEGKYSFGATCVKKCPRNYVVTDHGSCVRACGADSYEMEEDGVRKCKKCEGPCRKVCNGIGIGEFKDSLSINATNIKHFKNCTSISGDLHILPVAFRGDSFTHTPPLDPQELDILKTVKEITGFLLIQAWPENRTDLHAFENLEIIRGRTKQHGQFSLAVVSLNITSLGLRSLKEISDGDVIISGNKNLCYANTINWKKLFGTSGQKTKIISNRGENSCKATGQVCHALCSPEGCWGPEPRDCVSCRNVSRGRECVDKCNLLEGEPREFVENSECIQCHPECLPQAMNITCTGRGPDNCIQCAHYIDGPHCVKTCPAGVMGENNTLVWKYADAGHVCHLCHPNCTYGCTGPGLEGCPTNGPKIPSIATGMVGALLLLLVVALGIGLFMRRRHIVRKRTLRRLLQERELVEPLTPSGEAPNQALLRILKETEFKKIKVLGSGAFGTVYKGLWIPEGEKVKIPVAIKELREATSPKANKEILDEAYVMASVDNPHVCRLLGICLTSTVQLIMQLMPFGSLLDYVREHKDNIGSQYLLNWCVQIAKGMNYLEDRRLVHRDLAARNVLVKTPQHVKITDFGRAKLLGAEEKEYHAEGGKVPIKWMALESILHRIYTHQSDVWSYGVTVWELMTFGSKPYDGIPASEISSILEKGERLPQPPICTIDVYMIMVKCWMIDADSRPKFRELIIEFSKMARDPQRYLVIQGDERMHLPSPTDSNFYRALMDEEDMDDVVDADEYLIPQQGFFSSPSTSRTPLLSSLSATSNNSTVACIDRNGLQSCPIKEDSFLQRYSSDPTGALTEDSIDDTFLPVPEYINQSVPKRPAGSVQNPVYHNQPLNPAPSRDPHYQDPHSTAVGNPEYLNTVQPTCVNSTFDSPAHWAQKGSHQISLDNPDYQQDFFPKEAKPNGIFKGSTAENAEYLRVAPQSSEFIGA
The assay can be described thus: Enzymology experiment in vitro (HTRF/FRET kinase activity), L858R/T790M/C797S triple mutant EGFR. Format: biochemical. The conditions noted are these: HTRF KinEASE-TK, read-out: EGFR (L858R/T790M/C797S) IC50. As to the method:
as §1, §2, §3, §4, §5, §6

Assay [2] relates to EGFR wild-type cell line A431. Briefly: Cell proliferation inhibition experiment (CellTiter-Glo), A431. Format: cell-based. The conditions noted are these: A431 cells, Cell Titer-Glo, read-out: A431 EGFR WT IC50. The protocol: A431 cells, purchased from ATCC.
1) A431 cells were inoculated in a 384-well culture plate at a density of 800 cells per well, 30 μL per well, placed in a cell incubator, and cultured for 24 hours (37° C., 5% CO2).
(§7) 3) 30 nL of gradient diluted compound was transferred into the 384-well experimental plate using Echo 550 (Labcyte) at a DMSO final concentration of 0.1%, and the culture plate was incubated in a cell incubator for 72 hours (37° C., 5% CO2).
(§8) 4) 30 μL of Cell Titer-Glo reagent was added to each well and left for 30 minutes at room temperature and protected from light.
(§9) 5) Envision microplate reader (PerkinElmer) detected chemiluminescence signals.
(§10) 6) GraphPad Prism 8 software was used for data analysis to obtain the IC50 of the compounds of the present disclosure and the positive control.
A general note: ATP-based viability assays read luminescence as a measure of living cells.

For assay [3], the target named is Ba/F3 De119/T790M/C797S EGFR triple mutant cell line (Homo sapiens, UniProt P00533, T790M/C797S, cells depend on it, form not given). Briefly: Cell proliferation inhibition experiment (CellTiter-Glo), Ba/F3 De119/T790M/C797S. Format: cell-based. The following applies: Ba/F3 Del19/T790M/C797S EGFR triple mutant cells, 72 hours, Cell Titer-Glo; read-out: Ba/F3 (Del19/T790M/C797S) IC50. The protocol: as §7, §8, §9, §10
Sequence of Ba/F3 De119/T790M/C797S EGFR triple mutant cell line (P00533 with tags, fused parts or gaps DEL746-750/T790M/C797S, form open): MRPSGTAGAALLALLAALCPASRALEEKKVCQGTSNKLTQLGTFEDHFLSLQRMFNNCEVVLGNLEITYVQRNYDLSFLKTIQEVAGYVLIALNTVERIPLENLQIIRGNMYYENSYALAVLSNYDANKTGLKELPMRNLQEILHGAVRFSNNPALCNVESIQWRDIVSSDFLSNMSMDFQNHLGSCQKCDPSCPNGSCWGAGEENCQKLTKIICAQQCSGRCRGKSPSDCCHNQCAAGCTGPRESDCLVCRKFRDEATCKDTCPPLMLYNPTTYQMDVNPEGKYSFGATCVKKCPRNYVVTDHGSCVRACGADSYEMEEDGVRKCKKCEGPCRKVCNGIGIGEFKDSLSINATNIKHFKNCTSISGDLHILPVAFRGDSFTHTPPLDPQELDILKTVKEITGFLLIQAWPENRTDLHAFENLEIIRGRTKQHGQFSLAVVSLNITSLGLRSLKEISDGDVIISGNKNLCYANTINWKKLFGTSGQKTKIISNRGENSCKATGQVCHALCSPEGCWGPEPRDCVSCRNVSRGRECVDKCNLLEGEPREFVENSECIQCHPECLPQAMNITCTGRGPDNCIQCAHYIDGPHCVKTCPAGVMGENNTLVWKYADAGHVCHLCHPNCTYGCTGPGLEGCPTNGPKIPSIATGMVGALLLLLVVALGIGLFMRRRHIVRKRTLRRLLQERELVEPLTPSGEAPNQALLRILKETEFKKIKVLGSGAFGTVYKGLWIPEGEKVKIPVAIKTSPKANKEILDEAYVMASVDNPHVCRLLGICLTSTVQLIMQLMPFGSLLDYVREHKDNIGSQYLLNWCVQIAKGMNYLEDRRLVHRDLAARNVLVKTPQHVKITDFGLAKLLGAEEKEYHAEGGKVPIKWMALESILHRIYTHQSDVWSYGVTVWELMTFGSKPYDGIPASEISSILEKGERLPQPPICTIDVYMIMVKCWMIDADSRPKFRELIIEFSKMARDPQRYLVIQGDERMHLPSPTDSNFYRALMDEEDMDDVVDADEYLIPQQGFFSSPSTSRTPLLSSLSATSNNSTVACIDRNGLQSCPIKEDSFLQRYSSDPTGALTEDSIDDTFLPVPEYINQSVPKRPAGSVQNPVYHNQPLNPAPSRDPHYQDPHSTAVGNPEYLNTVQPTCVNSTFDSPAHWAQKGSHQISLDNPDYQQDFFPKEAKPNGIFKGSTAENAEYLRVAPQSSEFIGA

Assay [4] addresses Ba/F3 L858R/T790M/C797S EGFR triple mutant cell line (Homo sapiens, UniProt P00533, T790M/C797S/L858R, cells depend on it). The assay can be described thus: Cell proliferation inhibition experiment (CellTiter-Glo), Ba/F3 L858R/T790M/C797S. The following applies: 72 hours, Cell Titer-Glo, read-out: Ba/F3 (L858R/T790M/C797S) IC50. In kind it is cell-based. As to the method:
as §7, §8, §9, §10

Sequence of Ba/F3 L858R/T790M/C797S EGFR triple mutant cell line (P00533 whole entry T790M/C797S/L858R): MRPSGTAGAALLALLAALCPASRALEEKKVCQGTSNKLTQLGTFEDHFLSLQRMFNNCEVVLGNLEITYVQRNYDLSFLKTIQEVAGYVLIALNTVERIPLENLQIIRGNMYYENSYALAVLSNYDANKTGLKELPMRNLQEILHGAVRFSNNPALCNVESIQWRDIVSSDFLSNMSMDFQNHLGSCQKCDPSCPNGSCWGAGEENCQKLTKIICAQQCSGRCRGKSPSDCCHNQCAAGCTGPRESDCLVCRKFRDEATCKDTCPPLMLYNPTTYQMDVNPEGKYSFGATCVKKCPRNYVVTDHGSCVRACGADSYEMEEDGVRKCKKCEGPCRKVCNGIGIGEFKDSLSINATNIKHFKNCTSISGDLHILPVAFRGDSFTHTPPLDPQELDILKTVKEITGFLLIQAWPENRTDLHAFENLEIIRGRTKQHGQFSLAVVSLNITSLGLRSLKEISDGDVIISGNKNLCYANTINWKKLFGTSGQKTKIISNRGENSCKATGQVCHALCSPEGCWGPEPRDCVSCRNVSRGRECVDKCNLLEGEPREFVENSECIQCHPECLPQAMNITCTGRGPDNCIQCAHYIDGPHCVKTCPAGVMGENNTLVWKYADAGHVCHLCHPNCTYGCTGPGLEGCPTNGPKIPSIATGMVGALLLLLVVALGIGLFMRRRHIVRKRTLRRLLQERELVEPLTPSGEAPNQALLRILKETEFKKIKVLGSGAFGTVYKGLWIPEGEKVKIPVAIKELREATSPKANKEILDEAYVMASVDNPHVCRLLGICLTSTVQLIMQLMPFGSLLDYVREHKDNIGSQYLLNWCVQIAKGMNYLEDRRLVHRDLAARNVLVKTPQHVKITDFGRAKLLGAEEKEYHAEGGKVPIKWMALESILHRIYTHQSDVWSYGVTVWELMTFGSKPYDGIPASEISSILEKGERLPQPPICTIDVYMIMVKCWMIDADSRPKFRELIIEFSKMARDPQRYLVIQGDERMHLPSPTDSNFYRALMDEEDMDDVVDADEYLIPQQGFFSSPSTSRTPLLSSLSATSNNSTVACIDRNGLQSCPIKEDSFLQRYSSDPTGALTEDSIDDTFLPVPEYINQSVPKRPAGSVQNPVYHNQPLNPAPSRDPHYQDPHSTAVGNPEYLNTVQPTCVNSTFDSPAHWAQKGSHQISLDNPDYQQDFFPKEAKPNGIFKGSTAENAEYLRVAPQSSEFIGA
T1 sequence (P00533 25-1210): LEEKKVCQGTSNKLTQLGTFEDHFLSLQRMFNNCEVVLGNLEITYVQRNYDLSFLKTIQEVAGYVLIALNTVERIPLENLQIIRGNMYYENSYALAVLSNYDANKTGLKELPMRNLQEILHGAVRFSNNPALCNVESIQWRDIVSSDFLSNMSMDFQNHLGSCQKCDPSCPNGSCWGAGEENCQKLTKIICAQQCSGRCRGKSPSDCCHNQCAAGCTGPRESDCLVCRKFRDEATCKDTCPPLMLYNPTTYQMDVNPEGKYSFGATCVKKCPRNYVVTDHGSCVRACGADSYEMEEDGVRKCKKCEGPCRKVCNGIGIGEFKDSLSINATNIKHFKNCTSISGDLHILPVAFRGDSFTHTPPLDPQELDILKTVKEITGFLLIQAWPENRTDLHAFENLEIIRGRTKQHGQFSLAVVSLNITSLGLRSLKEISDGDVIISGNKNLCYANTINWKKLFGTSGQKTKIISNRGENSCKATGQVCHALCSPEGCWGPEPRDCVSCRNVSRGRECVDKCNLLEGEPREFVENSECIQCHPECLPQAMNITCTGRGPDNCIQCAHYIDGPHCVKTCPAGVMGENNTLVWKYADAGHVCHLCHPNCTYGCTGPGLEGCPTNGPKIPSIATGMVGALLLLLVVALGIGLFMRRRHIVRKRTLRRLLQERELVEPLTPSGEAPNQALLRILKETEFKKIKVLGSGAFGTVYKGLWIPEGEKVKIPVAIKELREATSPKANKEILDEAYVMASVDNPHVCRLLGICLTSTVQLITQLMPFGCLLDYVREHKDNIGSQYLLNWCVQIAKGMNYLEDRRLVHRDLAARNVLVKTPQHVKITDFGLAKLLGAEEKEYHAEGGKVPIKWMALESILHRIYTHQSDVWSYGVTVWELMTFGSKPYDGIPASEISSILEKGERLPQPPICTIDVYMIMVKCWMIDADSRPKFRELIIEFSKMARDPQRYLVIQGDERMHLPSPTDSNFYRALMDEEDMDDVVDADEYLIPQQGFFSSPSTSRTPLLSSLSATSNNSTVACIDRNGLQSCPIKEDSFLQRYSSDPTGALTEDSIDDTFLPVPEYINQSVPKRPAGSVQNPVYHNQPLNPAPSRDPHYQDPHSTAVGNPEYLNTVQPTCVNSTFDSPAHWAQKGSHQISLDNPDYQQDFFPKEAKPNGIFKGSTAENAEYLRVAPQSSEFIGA

For `COc1cc(N2CC(C)OC(C)C2)c(-c2cnn(C)c2)cc1Nc1ncc(Br)c(Nc2ccc3nccnc3c2P(C)(C)=O)n1` (racemic) [compound 135, (6-((5-bromo-2-((4-(trans-2,6-dimethylmorpholinyl)-2-methoxy-5-(1-methyl-1H-pyrazol-4-yl)phenyl)amino))pyrimidin-4-yl)amino)quinoxalin-5-yl)dimethylphosphine oxide], the IC50 came to 15.6 nM on wild-type EGFR; 0.47 nM in assay [1]; 402 nM in assay [2] (Homo sapiens, A-431, 72 h). Moreover, the GI50 turned out to be 3.68 nM in assay [3] and 13.3 nM in assay [4].
For `COc1cc(N2CC(C)OC(C)C2)c(-c2cnn(C)c2)cc1Nc1ncc(Br)c(Nc2cc3c(cc2P(C)(C)=O)CC3)n1` (racemic) [compound 136], in that order: 99.5 nM, 5.3 nM, 1750 nM, 13.7 nM and 57.1 nM.
`COc1cc(N2CC(C)OC(C)C2)c(-c2cnn(C)c2)cc1Nc1ncc(Br)c(Nc2cc3c(cc2P(C)(C)=O)CC3)n1` (racemic) [compound 137]: the IC50 at wild-type EGFR came to 170 nM; in assay [1], 9.81 nM; in assay [2] (72 hours) it was 1500 nM. Moreover, the GI50 was 27.1 nM in assay [3] and 77.8 nM in assay [4].
`COc1cc(N2CCC(N3CCOC(C)C3)CC2)c(-c2cnn(C)c2)cc1Nc1ncc(Br)c(Nc2ccc3nccnc3c2P(C)(C)=O)n1` (racemic) [compound 148, (6-((5-bromo-2-((2-methoxy-5-(1-methyl-1H-pyrazol-4-yl)-4-(4-(2-methylmorpholinyl)piperidin-1-yl)phenyl)amino)pyrimidin-4-yl)amino)quinoxalin-5-yl)dimethylphosphine oxide]: the IC50 at wild-type EGFR was found to be 5.04 nM; in assay [1], 0.64 nM; in assay [2] (Homo sapiens, A-431, 72 h), 124 nM. Also, the results for the GI50 in assay [3] and in assay [4] were 0.7 nM and 2.78 nM, respectively.
As to `COc1cc(N2CCC(N3CC(C)OC(C)C3)CC2)c(-c2cnn(C)c2)cc1Nc1ncc(Br)c(Nc2ccc3nccnc3c2P(C)(C)=O)n1` (racemic) [compound 174], the IC50 at wild-type EGFR stood at 2.39 nM; in assay [1], 0.6 nM; in assay [2] (Homo sapiens, A-431, 72 h), 307 nM. Further, the figures for the GI50 in assay [3] and in assay [4] were 4.63 nM and 7.85 nM, respectively.
Consider `COc1cc(N2CCC3(CC2)CN(C)CC(C)O3)c(-c2cnn(C)c2)cc1Nc1ncc(Br)c(Nc2ccc3nccnc3c2P(C)(C)=O)n1` (racemic) [compound 217, (6-((5-Bromo-2-((4-(2,4-dimethyl-1-oxa-4,9-diazaspiro[5.5]undecan-9-yl)-2-methoxy-5-(1-methyl-1H-pyrazol-4-yl)phenyl)amino)pyrimidin-4-yl)amino)quinoxalin-5-yl)dimethylphosphine oxide], for which the IC50 at wild-type EGFR turned out to be 3.87 nM; in assay [1] it was 0.95 nM; in assay [2] (Homo sapiens, A-431, 72 h), 60.5 nM. Also, the GI50 in assay [3] was determined as 0.94 nM; in assay [4], 3.29 nM.
On the same counts, the results for `COc1cc(N2CCC3C(C2)CN3C)c(-c2cnn(C)c2)cc1Nc1ncc(Br)c(Nc2ccc3nccnc3c2P(C)(C)=O)n1` (racemic) [compound 221] are 1.37 nM, 0.09 nM, 26.2 nM, 2.41 nM and 2.79 nM.
On the same counts, the results for `COc1cc(N2CCC(N3CC(F)C3)C2)c(-c2cnn(C)c2)cc1Nc1ncc(Br)c(Nc2ccc3nccnc3c2P(C)(C)=O)n1` (racemic) [compound 223, (6-((5-Bromo-2-((4-(3-(3-fluoroazetidin-1-yl)pyrrolidin-1-yl)-2-methoxy-5-(1-methyl-1H-pyrazol-4-yl)phenyl)amino)pyrimidin-4-yl)amino)quinoxalin-5-yl)dimethylphosphine oxide] are 7 nM, 0.17 nM, 76.9 nM, 2.88 nM and 3.56 nM.
On the same counts, the results for `COc1cc(N2CC(C)OC(C)C2)c(-c2cnn(C)c2)cc1Nc1ncc(Br)c(Nc2ccc3nccnc3c2P(C)(C)=O)n1` (single isomer, unassigned) [155a] are 27.7 nM, 0.67 nM, 320 nM, 2.98 nM and 15.6 nM.
`COc1cc(N2CC(C)OC(C)C2)c(-c2cnn(C)c2)cc1Nc1ncc(Br)c(Nc2ccc3nccnc3c2P(C)(C)=O)n1` (single isomer, unassigned) [155b]: the IC50 at wild-type EGFR amounted to 21.6 nM; in assay [1], 0.8 nM; in assay [2] (72 hours), 213 nM. Besides, the values for the GI50 in assay [3] and in assay [4] were 1.63 nM and 7.55 nM, respectively.
`COc1cc(N2CCC3CCN(CC4CC4)C3C2)c(-c2cnn(C)c2)cc1Nc1ncc(Br)c(Nc2ccc3nccnc3c2P(C)(C)=O)n1` (single isomer, unassigned) [234a]: the IC50 on wild-type EGFR came out at 5.04 nM; in assay [1], 0.32 nM; in assay [2] (Homo sapiens, A-431, 72 h), 42.4 nM. Further, the GI50 in assay [3] was determined as 2.05 nM; in assay [4], 3.91 nM.
Take `COc1cc(N2CC[C@@H]3CCN(CC4CC4)[C@@H]3C2)c(-c2cnn(C)c2)cc1Nc1ncc(Br)c(Nc2ccc3nccnc3c2P(C)(C)=O)n1` (single isomer, unassigned) [234b]: the IC50 at wild-type EGFR turned out to be 5.44 nM; in assay [1], 0.37 nM; in assay [2] (Homo sapiens, A-431, 72 h), 38.4 nM. Moreover, the GI50 in assay [3] was found to be 2.52 nM; in assay [4], 5.65 nM.
As for `COc1cc(N2CCC3(CC2)CO[C@@H](C)[C@@H]3N(C)C)c(-c2cnn(C)c2)cc1Nc1ncc(Br)c(Nc2ccc3nccnc3c2P(C)(C)=O)n1` (stereo in doubt) [compound 201], the IC50 stood at 6.92 nM on wild-type EGFR; 0.74 nM in assay [1]; 120 nM in assay [2] (Homo sapiens, A-431, 72 h). Moreover, the GI50 in assay [3] worked out at 2.22 nM; in assay [4] it was 3.7 nM.
Consider `COc1cc(N2CCOCC2)c(-c2cnn(C)c2)cc1Nc1ncc(Br)c(Nc2ccc3nccnc3c2P(C)(C)=O)n1` [Compound 1, (6-((5-bromo-2-((2-methoxy-5-(1-methyl-1H-pyrazol-4-yl)-4-morpholinophenyl)amino)pyrimidin-4-yl)amino)quinoxalin-5-yl)-dimethylphosphine oxide], for which the IC50 at wild-type EGFR was 0.94 nM; in assay [1], 0.12 nM; in assay [2] (Homo sapiens, A-431, 72 h), 137 nM. In addition, the GI50 in assay [3] worked out at 0.58 nM; in assay [4] it was 5.61 nM.
On to `COc1cc(S(C)(=O)=O)c(-c2cnn(C)c2)cc1Nc1ncc(Br)c(Nc2ccc3nccnc3c2P(C)(C)=O)n1` [compound 44], for which the IC50 at wild-type EGFR is 1560 nM; in assay [1], 22 nM; in assay [2] (Homo sapiens, A-431, 72 h), no less than 5000 nM. Also, in assay [3], the GI50 was found to be 93.5 nM.
For `CN1CCOc2c(Nc3ncc(Br)c(Nc4ccc5nccnc5c4P(C)(C)=O)n3)cc(-c3cnn(C)c3)cc21` [compound 47], in that order: 20.5 nM, 0.37 nM, 126 nM and 4.31 nM.
For `CCn1cc(-c2cc(Nc3ncc(Br)c(Nc4ccc5nccnc5c4P(C)(C)=O)n3)c(OC)cc2N2CCOCC2)cn1` [compound 49], in that order: 21.5 nM, 0.12 nM, 234 nM and 4.88 nM.
In the case of `Cn1cc(-c2cc(Nc3ncc(Br)c(Nc4ccc5nccnc5c4P(C)(C)=O)n3)c3c(c2N2CCOCC2)CCCO3)cn1` [compound 51], the IC50 at wild-type EGFR amounted to 111 nM; in assay [1], 0.11 nM; in assay [2] (Homo sapiens, A-431, 72 h) it was 292 nM. Further, the GI50 in assay [4] worked out at 36.8 nM.
With `COc1cnc(-c2cnn(C)c2)cc1Nc1ncc(C)c(Nc2ccc3nccnc3c2P(C)(C)=O)n1` [compound 53], the IC50 at wild-type EGFR turned out to be 87 nM; in assay [1] it was 3.6 nM; in assay [2] (Homo sapiens, A-431, 72 h), 294 nM. In assay [3], the GI50 was 62.2 nM.
In the case of `COc1cc(N2CCC(N3CCOCC3)CC2)c(-c2cnn(C)c2)cc1Nc1ncc(Br)c(Nc2ccc3nccnc3c2P(C)(C)=O)n1` [compound 210], the results for the IC50 in assay [1] and in assay [2] (72 hours) were 0.11 nM and 275 nM, respectively. In addition, the GI50 in assay [3] turned out to be 4.42 nM; in assay [4] it was 7.23 nM.
